We go through 13 compounds from patent US10611740B2, “Aryl dihydro-2H-benzo[b][1,4]oxazine sulfonamide and related compounds for use as agonists of RORγ and the treatment of disease” (Lycera Corporation, priority 2015, dated 2020).

Molecules are shown by their SMILES. Bounds are passed on as bounds.

For one experiment, the target named is T1, Gal4-RORγ-LBD (Homo sapiens, UniProt P51449).
T1 construct: expressed in transfected cells; host or cells: HEK-293 cells (pcDNA3.1neo plasmid)
T1 sequence (P51449 269-508 limits assumed): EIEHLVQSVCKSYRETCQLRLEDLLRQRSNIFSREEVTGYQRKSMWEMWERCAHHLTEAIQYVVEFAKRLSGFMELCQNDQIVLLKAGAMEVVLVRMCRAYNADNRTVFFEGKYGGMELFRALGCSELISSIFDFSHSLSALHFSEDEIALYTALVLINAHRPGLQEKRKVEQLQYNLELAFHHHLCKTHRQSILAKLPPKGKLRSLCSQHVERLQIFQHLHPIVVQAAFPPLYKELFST
As to the kind of experiment: Gal4-RORγ Luciferase Reporter Assay in HEK-293T Cells. Type of experiment: cell-based. The note with it: HEK-293 cells. In a few lines: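 Luminescence read-out (One-Glo, 10 min RT) after overnight compound exposure at 37 °C in HEK-293 cells carrying Gal4-RORγ-LBD plus a Gal4-luciferase reporter, in the presence of 2 μM ursolic acid. Max Response is the upper plateau from a 4-parameter logistic fit, normalized to untreated signal = 100.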
(A reporter such as luciferase makes a cellular process visible.)

The next experiment has as its target T2, RORγ-LBD (Homo sapiens, UniProt P51449).
T2 construct: made in house; host or cells: SF9 cells (baculovirus)
T2 sequence (P51449 269-508 limits assumed): T1 sequence (P51449 269-508 limits assumed)
The experiment is described as follows: RORγ-Ligand Binding Domain (LBD) TR-FRET Assay.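 As to TR-FRET Assay Max Response: 665/615 nm ratio relative to signal without ursolic acid or compound set at 100.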 It is filed as biochemical. In outline:
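This TR-FRET coactivator assay pairs baculovirus-expressed His-RORγ-LBD (~3 nM final) with biotin-SRC1 LXXLL peptide at 200 nM final in pH 7.0 Tris/KCl/EDTA/DTT/BSA buffer.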
In general terms: Time-resolved FRET reads energy transfer from a long-lived donor to a nearby acceptor.

Setting [1] is: luciferase reporter, with 2 μM ursolic acid.

For the compound `O=C(O)C1(C[C@H]2CN(S(=O)(=O)c3cccc(C(F)(F)F)c3)c3cc(-c4cccc(Cl)c4F)ccc3O2)CCC1` [Compound 32BF, (S)-1-((6-(3-chloro-2-fluoro-phenyl)-4-((3-(trifluoromethyl)-phenyl)sulfonyl)-3,4-dihydro-2H-benzo[b][1,4]oxazin-2-yl)-methyl)cyclobutane-1-carboxylic acid], at Gal4-RORγ-LBD (2 μM ursolic acid), the EC50 is less than 500 nM and the “Gal4-RORγ Assay Max Response” value is recorded as “** (The symbol “**” indicates a value in the range of greater than 90 to 150)”. At RORγ-LBD, the EC50 was less than 500 nM and the “TR-FRET Assay Max Response” value is listed as “*** (The symbol “***” indicates a value in the range of greater than 150 to 200)”.
On to `CC(C)(C[C@H]1CN(S(=O)(=O)c2cccc(C(F)(F)F)c2)c2cc(-c3cc(F)cc(OC(F)F)c3F)ccc2O1)C(=O)O` [Compound 32BG, (S)-3-(6-(3-(difluoromethoxy)-2,5-difluorophenyl)-4-((3-(trifluoromethyl)phenyl)sulfonyl)-3,4-dihydro-2H-benzo[b][1,4]-oxazin-2-yl)-2,2-dimethyl-propanoic acid], for which, on Gal4-RORγ-LBD (2 μM ursolic acid), the EC50 is less than 500 nM and the “Gal4-RORγ Assay Max Response” value is on record as “** (The symbol “**” indicates a value in the range of greater than 90 to 150)”. Also, on RORγ-LBD, the EC50 was less than 500 nM and the “TR-FRET Assay Max Response” value was “** (The symbol “**” indicates a value in the range of greater than 90 to 150)”.
`O=C(O)C1(C[C@H]2CN(S(=O)(=O)c3cccc(C(F)(F)F)c3)c3cc(-c4cc(F)cc(OC(F)F)c4)ccc3O2)CCC1` [Compound 32BH, (S)-1-((6-(3-(difluoromethoxy)-5-fluorophenyl)-4-((3-(trifluoro-methyl)phenyl)sulfonyl)-3,4-dihydro-2H-benzo[b][1,4]oxazin-2-yl)methyl)cyclobutane-l-carboxylic acid]: on Gal4-RORγ-LBD (2 μM ursolic acid), the EC50 was 500 to 5000 nM and the “Gal4-RORγ Assay Max Response” value is “** (The symbol “**” indicates a value in the range of greater than 90 to 150)”. On RORγ-LBD, the EC50 was less than 500 nM and the “TR-FRET Assay Max Response” value is on record as “*** (The symbol “***” indicates a value in the range of greater than 150 to 200)”.
For `CC(C)(C[C@H]1CN(S(=O)(=O)c2cccc(C(F)(F)F)c2)c2cc(-c3cc(OC(F)F)ccc3F)ccc2O1)C(=O)O` [Compound 32BI, (S)-3-(6-(5-(difluoromethoxy)-2-fluorophenyl)-4-((3-(trifluoromethyl)phenyl)sulfonyl)-3,4-dihydro-2H-benzo[b][1,4]oxazin-2-yl)-2,2-dimethylpropanoic acid], on Gal4-RORγ-LBD (2 μM ursolic acid), the 50% effective concentration (EC50) is less than 500 nM and the “Gal4-RORγ Assay Max Response” value is “** (The symbol “**” indicates a value in the range of greater than 90 to 150)”. In addition, on RORγ-LBD, the EC50 is less than 500 nM and the “TR-FRET Assay Max Response” value is “*** (The symbol “***” indicates a value in the range of greater than 150 to 200)”.
`CC(C)(C[C@H]1CN(S(=O)(=O)c2cccc(C(F)(F)F)c2)c2cc(-c3cccc(OC(F)F)c3F)ccc2O1)C(=O)O` [Compound 32BJ, (S)-3-(6-(3-(difluoromethoxy)-2-fluorophenyl)-4-((3-(trifluoromethyl)phenyl)sulfonyl)-3,4-dihydro-2H-benzo[b][1,4]oxazin-2-yl)-2,2-dimethylpropanoic acid]: at Gal4-RORγ-LBD (2 μM ursolic acid), the concentration for a half-maximal effect (EC50) is less than 500 nM and the “Gal4-RORγ Assay Max Response” value is “** (The symbol “**” indicates a value in the range of greater than 90 to 150)”. At RORγ-LBD, the EC50 is less than 500 nM and the “TR-FRET Assay Max Response” value is on record as “*** (The symbol “***” indicates a value in the range of greater than 150 to 200)”.
Take `COc1ccc(F)c(-c2ccc3c(c2)N(S(=O)(=O)c2cccc(C(F)(F)F)c2)C[C@H](CC(C)(C)C(=O)O)O3)c1F` [Compound 32BK, (S)-3-(6-(2,6-difluoro-3-methoxyphenyl)-4-((3-(trifluoromethyl)phenyl)sulfonyl)-3,4-dihydro-2H-benzo[b][1,4]oxazin-2-yl)-2,2-dimethylpropanoic acid]: at Gal4-RORγ-LBD (2 μM ursolic acid), the EC50 was less than 500 nM and the “Gal4-RORγ Assay Max Response” value is “** (The symbol “**” indicates a value in the range of greater than 90 to 150)”. Moreover, at RORγ-LBD, the EC50 is less than 500 nM and the “TR-FRET Assay Max Response” value is “*** (The symbol “***” indicates a value in the range of greater than 150 to 200)”.
With `O=C(O)C1(C[C@H]2CN(S(=O)(=O)c3cccc(C(F)(F)F)c3)c3cc(-c4cccc(C(F)(F)F)n4)ccc3O2)CCC1` [Compound 32BL, (S)-l-((4-((3-(trifluoromethyl)-phenyl)sulfonyl)-6-(6-(trifluoro-methyl)pyridin-2-yl)-3,4-dihydro-2H-benzo[b][1,4]oxazin-2-yl)methyl)cyclobutane-1-carboxylic acid], at Gal4-RORγ-LBD (2 μM ursolic acid), the EC50 was less than 500 nM and the “Gal4-RORγ Assay Max Response” value is “* (The symbol “*” indicates a value in the range of 25 to 90)”. At RORγ-LBD, the EC50 was less than 500 nM and the “TR-FRET Assay Max Response” value is listed as “** (The symbol “**” indicates a value in the range of greater than 90 to 150)”.
With `CC(C)(C[C@H]1CN(S(=O)(=O)c2cccc(C(F)(F)F)c2)c2cc(-c3c(F)ccc(F)c3F)ccc2O1)C(=O)O` [Compound 32BM, (S)-2,2-dimethyl-3-(4-((3-(trifluoromethyl)phenyl)sulfonyl)-6-(2,3,6-trifluorophenyl)-3,4-dihydro-2H-benzo[b][1,4]oxazin-2-yl)propanoic acid], on Gal4-RORγ-LBD (2 μM ursolic acid), the EC50 was less than 500 nM and the “Gal4-RORγ Assay Max Response” value was “** (The symbol “**” indicates a value in the range of greater than 90 to 150)”. For the same compound, on RORγ-LBD, the EC50 is less than 500 nM and the “TR-FRET Assay Max Response” value is “*** (The symbol “***” indicates a value in the range of greater than 150 to 200)”.
`COc1cc(F)cc(-c2ccc3c(c2)N(S(=O)(=O)c2cccc(C(F)(F)F)c2)C[C@H](CC(C)(C)C(=O)O)O3)c1F` [Compound 32C, (S)-3-(6-(2,5-difluoro-3-methoxyphenyl)-4-((3-(trifluoromethyl)phenyl)sulfonyl)-3,4-dihydro-2H-benzo[b][1,4]oxazin-2-yl)-2,2-dimethylpropanoic acid]: at Gal4-RORγ-LBD (setting [1]), the EC50 is less than 500 nM and the “Gal4-RORγ Assay Max Response” value was “** (The symbol “**” indicates a value in the range of greater than 90 to 150)”. In addition, on RORγ-LBD, the EC50 is less than 500 nM and the “TR-FRET Assay Max Response” value is reported as “**** (The symbol “****” indicates a value greater than 200)”.
Regarding `CN(C)c1cccc(-c2ccc3c(c2)N(S(=O)(=O)c2cccc(C(F)(F)F)c2)C[C@H](CC(C)(C)C(=O)O)O3)n1` [Compound 32D, (S)-3-(6-(6-(dimethylamino)-pyridin-2-yl)-4-((3-(trifluoromethyl)phenyl)sulfonyl)-3,4-dihydro-2H-benzo[b][1,4]oxazin-2-yl)-2,2-dimethylpropanoic acid], on Gal4-RORγ-LBD (setting [1]), the EC50 is less than 500 nM and the “Gal4-RORγ Assay Max Response” value was “** (The symbol “**” indicates a value in the range of greater than 90 to 150)”. Also, at RORγ-LBD, the EC50 is less than 500 nM and the “TR-FRET Assay Max Response” value is given as “**** (The symbol “****” indicates a value greater than 200)”.
In the case of `CC(C)(C[C@H]1CN(S(=O)(=O)c2cccc(C(F)(F)F)c2)c2cc(-c3cccc(C(F)(F)F)n3)ccc2O1)C(=O)O` [Compound 32E, (S)-2,2-dimethyl-3-(4-((3-(trifluoromethyl)phenyl)sulfonyl)-6-(6-(trifluoromethyl)pyridin-2-yl)-3,4-dihydro-2H-benzo[b][1,4]oxazin-2-yl)propanoic acid], on Gal4-RORγ-LBD (setting [1]), the EC50 is less than 500 nM and the “Gal4-RORγ Assay Max Response” value is “** (The symbol “**” indicates a value in the range of greater than 90 to 150)”. In addition, on RORγ-LBD, the EC50 is less than 500 nM and the “TR-FRET Assay Max Response” value is listed as “**** (The symbol “****” indicates a value greater than 200)”.
As to `CC(C)(C[C@H]1CN(S(=O)(=O)c2cccc(C(F)(F)F)c2)c2cc(-c3cccc(OC(F)(F)F)c3)ccc2O1)C(=O)O` [Compound 32F, (S)-2,2-dimethyl-3-(6-(3-(trifluoromethoxy)phenyl)-4-((3-(trifluoromethyl)phenyl)sulfonyl)-3,4-dihydro-2H-benzo[b][1,4]oxazin-2-yl)propanoic acid], on Gal4-RORγ-LBD (setting [1]), the EC50 was less than 500 nM and the “Gal4-RORγ Assay Max Response” value is “** (The symbol “**” indicates a value in the range of greater than 90 to 150)”. Also, at RORγ-LBD, the EC50 is less than 500 nM and the “TR-FRET Assay Max Response” value is listed as “**** (The symbol “****” indicates a value greater than 200)”.
In the case of `CC(C)(C[C@H]1CN(S(=O)(=O)c2cccc(C(F)(F)F)c2)c2cc(-c3cccc(OC(F)F)c3)ccc2O1)C(=O)O` [Compound 32G, (S)-3-(6-(3-(difluoromethoxy)-phenyl)-4-((3-(trifluoromethyl)-phenyl)sulfonyl)-3,4-dihydro-2H-benzo[b][1,4]oxazin-2-yl)-2,2-dimethylpropanoic acid], on Gal4-RORγ-LBD (setting [1]), the EC50 was less than 500 nM and the “Gal4-RORγ Assay Max Response” value is listed as “** (The symbol “**” indicates a value in the range of greater than 90 to 150)”. On RORγ-LBD, the EC50 was less than 500 nM and the “TR-FRET Assay Max Response” value was “*** (The symbol “***” indicates a value in the range of greater than 150 to 200)”.

The EC50 is the concentration at which the effect is half-maximal. A low value points to a more potent agent.
